Reference: patent US20040037774A1, “Carrier for carrying radioactive substances and methods for using the same” (priority 2002, published 2004)

Assays:
[1] = system: human fibroblast cells (normal cells); experiment: Affinity test on R-phycoerythrin for normal cells (fluorescent microscopy); type: cell-based; settings: 10, 20, 40 μg/ml R-phycoerythrin, 24-hour incubation, FIG. 3B-3D
Protocol: (§1) R-phycoerythrin is complete dialyzed with 150 mM sodium phosphate buffer, and then serial dilution is carried out by using MEM medium as diluent to obtain the R-phycoerythrin dilutions of concentrations between 1-100 μg/ml.
(§2) The tumor cells are human neuroblastoma cells, and normal cells for comparison are human fibroblast cells. First, cells are maintained in MEM medium (pH 7.4) supplemented with 10% fetal bovine serum, and incubate at 37° C. and 95% humidity. Replace the MEM medium every two days. When carrying out cell subculture, first remove the medium, and rinse the cells once with sodium phosphate buffer. Then add 0.25% trypsin-EDTA to detach the cells from the surface of petri dish, and stop the reaction of trypsin-EDTA by giving proper amount of foregoing MEM medium, and thus the cell suspension is obtained. Secondly, seed 100,000 to 400,000 cells onto cover slips placed in a 12-well culture plate and incubate at 37° C. and 95% humidity for 16 hours.
(§3) Following is the affinity test on R-phycoerythrin for human fibroblast cells (normal cells) and human neuroblastoma cells (tumor cells). Take the 12-well culture plate with cells growing on cover slips mentioned in step 2. Remove the medium and rinse the cells once with sodium phosphate buffer. Add 1 mL of R-phycoerythrin dilutions mentioned in step 1 to the cells and follow with incubation at 37° C. and 95% humidity. […]

[2] = system: human neuroblastoma cells (tumor cells); experiment: Affinity test on R-phycoerythrin for tumor cells (fluorescent microscopy); type: cell-based; settings: 10, 20, 40 μg/ml R-phycoerythrin, 24-hour incubation, FIG. 4B-4D
Protocol: as §1, §2, §3

R-phycoerythrin
fluorescent signal in cells (accumulation of R-phycoerythrin) [1]: no fluorescent signal is observed | strength of fluorescence signal in cells (accumulation of R-phycoerythrin) [2]: in accordance with the increasing amount of R-phycoerythrin
